In US20230233555A1 (AbbVie Inc., priority 2022, published 2023):

Assays:
[1] = tested on: CYP1A2, CYP3A, CYP2D6, CYP2C9, CYP2C19, CYP2B6; experiment: Drug interaction studies: effect of upadacitinib on co-administered drugs / in vivo markers of CYP activity (cocktail study); details: for AUC Ratio (90% CI) of co-administered drug, with upadacitinib vs alone / Cmax Ratio (90% CI) of co-administered drug, with upadacitinib vs alone: extended-release
[2] = tested on: patients with moderately to severely active rheumatoid arthritis, inadequate response to MTX; experiment: Trial RA-II (NCT02706951); format: in vivo, human; details: for CRP / Number of swollen joints (0-66) / Number of tender joints (0-68) / Pain / Patient global assessment / Physician global assessment: Trial RA-II, MTX-IR, monotherapy, mean; for Pain / Patient global assessment / Physician global assessment: visual analog scale 0 = best, 100 = worst; for CRP, mean / Number of swollen joints (0-66), mean / Number of tender joints (0-68), mean / Pain (visual analog scale 0-100), mean / Patient global assessment (visual analog scale 0-100), mean / Physician global assessment (visual analog scale 0-100), mean: RA-II
Excerpt: The primary endpoint was the proportion of patients who achieved an ACR20 response at Week 14. Key secondary endpoints included DAS28-CRP ≤3.2, DAS28-CRP <2.6, and change from baseline in HAQ-DI at Week 14.

[3] = tested on: patients with moderately to severely active rheumatoid arthritis, naive to MTX; experiment: Trial RA-I (NCT02706873); format: in vivo, human; details: for CRP / Number of swollen joints (0-66) / Number of tender joints (0-68) / Pain / Patient global assessment / Physician global assessment: mean; for Pain / Patient global assessment / Physician global assessment: visual analog scale 0 = best, 100 = worst
Description: The primary endpoint was the proportion of patients who achieved an ACR50 response at Week 12. Key secondary endpoints included disease activity score (DAS28-CRP) ≤3.2 at Week 12, DAS28-CRP <2.6 at Week 24, change from baseline in HAQ-DI at Week 12, and change from baseline in van der Heijde-modified total Sharp Score (mTSS) at Week 24.
Inhibition of progression of structural joint damage was assessed using the modified Total Sharp Score (mTSS) and its components, the erosion score and joint space narrowing score, at Week 26 in Trial RA-IV and Week 24 in Trial RA-I. The proportion of patients with no radiographic progression (mTSS change from baseline […]) was also assessed.

[4] = tested on: patients with rheumatoid arthritis; experiment: Rheumatoid arthritis Phase 3 trials, integrated datasets (RA-I to RA-V)
Description: Exposure adjusted incidence rates were adjusted by trial for all the adverse events reported in this section.
Patients 18 years of age and older were eligible to participate. The presence of at least 6 tender and 6 swollen joints and evidence of systemic inflammation based on elevation of hsCRP was required at baseline.

[5] = RA-II MTX-IR monotherapy, Week 14, RINVOQ 15 mg or MTX
[6] = Week 14 (primary efficacy timepoint), RINVOQ 15 mg or MTX
[7] = Baseline, Trial RA-I, MTX-naïve, monotherapy, RINVOQ 15 mg or MTX
[8] = RA-I MTX-naive monotherapy, Week 12, RINVOQ 15 mg or MTX
[9] = RA-I MTX-naive monotherapy, Week 24, RINVOQ 15 mg or MTX
[10] = RA-I, Baseline, RINVOQ 15 mg or MTX
[11] = RA-I, Week 12, RINVOQ 15 mg or MTX
[12] = Week 12 (primary efficacy timepoint), Trial RA-I, MTX-naïve, monotherapy, RINVOQ 15 mg or MTX
[13] = MTX-controlled RA-I and RA-II, 12/14 weeks, 15 mg monotherapy (or MTX monotherapy arm)
[14] = MTX-controlled trials, up to 12/14 weeks, 15 mg (or MTX arm)

Compound: COc1ccc2c(c1)[C@]13CCCC[C@@H]1[C@H](C2)N(C)CC3 [Dextromethorphan]
- AUC Ratio (90% CI) of co-administered drug, with upadacitinib vs alone ([1]; upadacitinib 30 mg QD): 1.07 (0.95-1.22)
- Cmax Ratio (90% CI) of co-administered drug, with upadacitinib vs alone ([1]; upadacitinib 30 mg QD): 1.09 (0.98-1.21)
- AUC Ratio (90% CI) of co-administered drug, with upadacitinib vs alone ([1]; upadacitinib 45 mg QD): 1.35 (1.18-1.54)
- Cmax Ratio (90% CI) of co-administered drug, with upadacitinib vs alone ([1]; upadacitinib 45 mg QD): 1.30 (1.13-1.50)

Compound: CN(Cc1cnc2nc(N)nc(N)c2n1)c1ccc(C(=O)N[C@@H](CCC(=O)O)C(=O)O)cc1 [MTX, methotrexate]
- CRP ([2]; Baseline, RINVOQ 15 mg or MTX): 14.5 mg/L
- Number of swollen joints (0-66) ([2]; Baseline, RINVOQ 15 mg or MTX): 17
- Number of tender joints (0-68) ([2]; Baseline, RINVOQ 15 mg or MTX): 25
- Pain ([2]; Baseline, RINVOQ 15 mg or MTX): 63
- Patient global assessment ([2]; Baseline, RINVOQ 15 mg or MTX): 60
- Physician global assessment ([2]; Baseline, RINVOQ 15 mg or MTX): 62
- ACR20 response, patients [2, 5]: 41%
- ACR50 response, patients [2, 5]: 15%
- ACR70 response, patients [2, 5]: 3%
- DAS28-CRP <2.6, patients [2, 5]: 8%
- Venous thrombosis, number of patients ([2]; RA-II through Week 14, 15 mg monotherapy (or MTX monotherapy arm)): 0 patients
- CRP, mean ([2]; Baseline, RINVOQ 15 mg or MTX): 14.5 mg/L
- Number of swollen joints (0-66), mean ([2]; Baseline, RINVOQ 15 mg or MTX): 17
- Number of tender joints (0-68), mean ([2]; Baseline, RINVOQ 15 mg or MTX): 25
- Pain (visual analog scale 0-100), mean ([2]; Baseline, RINVOQ 15 mg or MTX): 63
- Patient global assessment (visual analog scale 0-100), mean ([2]; Baseline, RINVOQ 15 mg or MTX): 60
- Physician global assessment (visual analog scale 0-100), mean ([2]; Baseline, RINVOQ 15 mg or MTX): 62
- CRP, mean ([2]; Week 14, RINVOQ 15 mg or MTX): 12.8 mg/L
- Number of swollen joints (0-66), mean ([2]; Week 14, RINVOQ 15 mg or MTX): 9
- Number of tender joints (0-68), mean ([2]; Week 14, RINVOQ 15 mg or MTX): 15
- Pain (visual analog scale 0-100), mean ([2]; Week 14, RINVOQ 15 mg or MTX): 49
- Patient global assessment (visual analog scale 0-100), mean ([2]; Week 14, RINVOQ 15 mg or MTX): 48
- Physician global assessment (visual analog scale 0-100), mean ([2]; Week 14, RINVOQ 15 mg or MTX): 37
- CRP [2, 6]: 12.8 mg/L
- Number of swollen joints (0-66) [2, 6]: 9
- Number of tender joints (0-68) [2, 6]: 15
- Pain [2, 6]: 49
- Patient global assessment [2, 6]: 48
- Physician global assessment [2, 6]: 37
- mTSS, Mean (SD) [3, 7]: 13.3 (31)
- CRP [3, 7]: 21.2 mg/L
- Number of swollen joints (0-66) [3, 7]: 17
- Number of tender joints (0-68) [3, 7]: 26
- Pain [3, 7]: 66
- Patient global assessment [3, 7]: 66
- Physician global assessment [3, 7]: 69
- ACR20 response, patients [3, 8]: 54%
- ACR50 response, patients [3, 8]: 28%
- ACR70 response, patients [3, 8]: 14%
- DAS28-CRP <2.6, patients (proportion of responders) [3, 8]: 14%
- ACR20 response, patients [3, 9]: 59%
- ACR50 response, patients [3, 9]: 33%
- ACR70 response, patients [3, 9]: 18%
- DAS28-CRP <2.6, patients [3, 9]: 18%
- mTSS, Mean (SD) ([3]; RA-I monotherapy, Baseline, RINVOQ 15 mg or MTX): 13.3 (31)
- mTSS, mean change from baseline (SD) ([3]; RA-I monotherapy, Week 24, RINVOQ 15 mg or MTX): 0.67 (2.8)
- Venous thrombosis, number of patients ([3]; RA-I through Week 24, 15 mg (or MTX arm)): 1 patients
- CRP, mean [3, 10]: 21.2 mg/L
- Number of swollen joints (0-66), mean [3, 10]: 17
- Number of tender joints (0-68), mean [3, 10]: 26
- Pain (visual analog scale 0-100), mean [3, 10]: 66
- Patient global assessment (visual analog scale 0-100), mean [3, 10]: 66
- Physician global assessment (visual analog scale 0-100), mean [3, 10]: 69
- CRP, mean [3, 11]: 10.9 mg/L
- Number of swollen joints (0-66), mean [3, 11]: 6
- Number of tender joints (0-68), mean [3, 11]: 13
- Of DAS28-CRP <2.6 responders, proportion with 0 active joints [3, 11]: 51%
- Of DAS28-CRP <2.6 responders, proportion with 1 active joint [3, 11]: 35%
- Of DAS28-CRP <2.6 responders, proportion with 2 active joints [3, 11]: 9%
- Of DAS28-CRP <2.6 responders, proportion with 3 or more active joints [3, 11]: 5%
- Pain (visual analog scale 0-100), mean [3, 11]: 41
- Patient global assessment (visual analog scale 0-100), mean [3, 11]: 42
- Physician global assessment (visual analog scale 0-100), mean [3, 11]: 32
- Patients with no radiographic progression ([3]; RA-I, Week 24, RINVOQ 15 mg monotherapy or MTX monotherapy): 78%
- CRP [3, 12]: 10.9 mg/L
- Number of swollen joints (0-66) [3, 12]: 6
- Number of tender joints (0-68) [3, 12]: 13
- Pain [3, 12]: 41
- Patient global assessment [3, 12]: 42
- Physician global assessment [3, 12]: 32
- mTSS, mean change from baseline (SD) ([3]; Week 24, Trial RA-I, MTX-naïve, monotherapy, RINVOQ 15 mg or MTX): 0.67 (2.8)
- Infections, number of patients [4, 13]: 127 patients
- Infections, rate [4, 13]: 119.5 per 100 patient-years
- Malignancies excluding NMSC, number of patients [4, 13]: 1 patients
- Malignancies excluding NMSC, rate [4, 13]: 0.8 per 100 patient-years
- Opportunistic infections (excluding tuberculosis), number of patients [4, 13]: 1 patients
- Serious infections, number of patients [4, 13]: 2 patients
- Serious infections, rate [4, 13]: 1.6 per 100 patient-years
- Opportunistic infections (excluding tuberculosis), rate ([4]; MTX-controlled RA-I and RA-II, 12/14 weeks, MTX monotherapy arm): 0.8 per 100 patient-years
- ALT elevations ≥3×ULN in at least one measurement, patients [4, 14]: 1.9%
- AST elevations ≥3×ULN in at least one measurement, patients [4, 14]: 0.9%
- Active tuberculosis cases ([4]; RA MTX-controlled period, 15 mg monotherapy (or MTX monotherapy arm)): no active cases
- Gastrointestinal perforations ([4]; RA MTX-controlled trials, 12/14 weeks, 15 mg (or MTX arm)): no cases

Compound: Cc1ncc2n1-c1ccc(Cl)cc1C(c1ccccc1F)=NC2 [Midazolam]
- Decrease in exposure of oral midazolam (sensitive CYP3A4 substrate) ([1]; repeated doses of upadacitinib 30 mg): 26%
- AUC Ratio (90% CI) of co-administered drug, with upadacitinib vs alone ([1]; upadacitinib 30 mg QD): 0.74 (0.68-0.80)
- Cmax Ratio (90% CI) of co-administered drug, with upadacitinib vs alone ([1]; upadacitinib 30 mg QD): 0.74 (0.68-0.80)
- AUC Ratio (90% CI) of co-administered drug, with upadacitinib vs alone ([1]; upadacitinib 45 mg QD): 0.76 (0.69-0.83)
- Cmax Ratio (90% CI) of co-administered drug, with upadacitinib vs alone ([1]; upadacitinib 45 mg QD): 0.75 (0.69-0.83)
